For the assay, the system named is Plasmodium falciparum. As to the kind of experiment: GSK_TCMDC: Inhibition of Plasmodium falciparum 3D7 in whole erythrocytes, using parasite LDH activity as an index of growth. Type of assay: functional, organism-based. As to conditions: Plasmodium falciparum, 3D7.
`CCOc1ccc2nc(C)cc(N/N=C/c3cccc([N+](=O)[O-])c3)c2c1` displayed an XC50 of 664 nM.

Take `CC1CCN(Cc2c(O)ccc3c(O)c(-c4nc5ccccc5s4)c(=N)oc23)CC1`: the XC50 was 162 nM.

Regarding `c1ccc(OCCOc2ccc(Nc3ccnc4cc5ccccc5cc34)cc2)cc1`, the XC50 was 252 nM.

Consider `Cc1ccc(/C=C/C(=O)NCCCCCN2CCC(c3c[nH]c4ccccc34)CC2)cc1`, for which the XC50 is 1010 nM.

With `CC(=O)C1(c2ccccc2)CCN(CCC2(c3ccc(Cl)c(Cl)c3)CN(C(=O)Nc3cccc(C(F)(F)F)c3)CCO2)CC1` (stereo not given), the XC50 stood at 1050 nM.

Compound `COc1cc(OC)c2c(c1Cl)O[C@]1(C2=O)C(=O)C(Cc2ccccc2)(Cc2ccccc2)C(=O)C[C@H]1C` returned an XC50 of 974 nM.

`CN1CCN(c2cc(NC(=O)c3ccc(-c4ccc(C#N)cc4)cc3)ccc2Cl)CC1` gave an XC50 of 464 nM.

In turn, `Oc1ccc(CN2CCC(N3CCN(CCc4ccccc4)CC3)C(O)C2)cc1Cl` (stereo not given) came in with an XC50 of 865 nM.

`CCC(C)NS(=O)(=O)c1ccc2nc(Nc3ccc(C)cc3)n([C@H](C)C(C)(C)C)c2c1` (stereo not given in full) yielded an XC50 of 391 nM.

Compound `COc1cc(/C=C/C(=O)NC2CCC(N3CCC(c4ccccc4C)CC3)CC2)cc(OC)c1` (stereo not given) came in with an XC50 of 979 nM.

`Cc1ccnc(-n2c(C)cc(C=C3SC(=Nc4ccccc4)N(Cc4ccco4)C3=O)c2C)c1` returned an XC50 of 237 nM.

Consider `O=C(/C=C/c1ccc(Cl)c(Cl)c1)NCCCCCN1CCC(NC(=O)Nc2cc(F)ccc2F)CC1`, for which the XC50 came to 697 nM.

Regarding `Cc1ccccc1Oc1nc2ccccc2nc1SCC(=O)NC(C)C`, the XC50 was 197 nM.

As for `O=C(/C=C/c1ccc(Cl)c(Cl)c1)N1CCC(CN2CCC(c3c[nH]c4ccc(NS(=O)(=O)c5cccs5)cc34)CC2)CC1`, the XC50 is 218 nM.

For the compound `Cc1ccccc1N1CCN(c2ccc(C(=O)NC3CC3)cn2)CC1`, the XC50 is 459 nM.

`O=C(Nc1cccc(CN2CCN(Cc3ccc(O)cc3)CC2)c1)c1cc2ccccc2o1` returned an XC50 of 1180 nM.

`CCN1CCN(c2cc(C)c3cc(NC(=O)c4cccc(C(F)(F)F)c4)ccc3n2)CC1` gave an XC50 of 568 nM.

The compound `COc1cccc(C=NN=c2cc(C)[nH]c3ccccc23)c1` registered an XC50 of 937 nM.

Consider `CC1CCCCC1N(C)C1CCN(CCCNC(=O)C=Cc2ccccc2Cl)CC1` (stereo not given), for which the XC50 was 666 nM.

`Cc1ccc(NC(=O)Nc2ccc(Cl)c(C(F)(F)F)c2)cc1-c1ccc(C(=O)NCCN2CCOCC2)cc1` had an XC50 of 811 nM.

The compound `CCCN(CCC)C(C)CCC(C)Nc1c2ccc(Cl)cc2nc2ccc(OC)cc12` (stereo not given) displayed an XC50 of 70.8 nM.

Regarding `NC(=O)c1sc(-n2cnc3ccc(OCC4CCNCC4)cc32)cc1OCc1ccccc1C(F)(F)F`, the XC50 worked out at 753 nM.

Turning to `CC(C#N)Cc1ccc(-c2cnc(N)c3cc(-c4ccnc(N)n4)ccc23)cc1` (stereo not given), the XC50 is 986 nM.

`CO/C(=C\C=C\c1cc2cc(Cl)c(Cl)cc2[nH]1)C(=O)NC1CC2CCC(C1)N2C` (stereo not given) showed an XC50 of 1030 nM.

In the case of `CC(=O)Nc1ccc(CN2CCC(NC(=O)c3ccc(-c4ccc(N(C)C)cc4)s3)CC2)cc1`, the XC50 is 869 nM.

`CC(C)(C)OC(=O)Nc1cccc(-c2csc(NC(=N)N)n2)c1`: the XC50 was found to be 836 nM.

The compound `CC(C)CCN1CCC(Oc2cccc(NC(=O)c3ccc(C(F)(F)F)cc3)c2)CC1` yielded an XC50 of 630 nM.

`Cc1ccc(NS(=O)(=O)c2cccs2)cc1-c1cccc(C(=O)Nc2ccc(F)cc2)c1` gave an XC50 of 653 nM.

`Cc1cccc(CN2CCN(c3ncc(C(=O)NC4CC4)cc3Cl)CC2)c1` returned an XC50 of 1310 nM.

In turn, `CCc1cn(CC(=O)N(CCOc2ccc(-c3ccc(C(F)(F)F)cc3)cc2)CCN(CC)CC)c(SCc2ccc(F)cc2)nc1=O` returned an XC50 of 777 nM.

`O=C(NCCc1ccc(Cl)c(Cl)c1)C1CCCN(C(=O)c2ccc(O)c(-c3ccc(Cl)c(Cl)c3)c2)C1` (stereo not given) gave an XC50 of 780 nM.

`COc1cc2nc(N3CCC(CNC(=O)c4ccc(-c5ccc(C(=O)N(C)C)cc5OCCO)cc4)CC3)nc(N)c2cc1OC` returned an XC50 of 645 nM.

Compound `CCOc1ccc(C(C)NC(=O)C2COc3ccccc3O2)cc1OCC` (stereo not given) displayed an XC50 of 899 nM.

With `Cc1ccc(Cn2ncc(N3CC(C)NC(C)C3)c(Cl)c2=O)cc1NC(=O)Nc1ccc(-c2ccccc2)cc1` (stereo not given), the XC50 turned out to be 739 nM.

For `CN1c2ccc([N+](=O)[O-])cc2C(C)(C)C12C=Cc1cc(Br)cc([N+](=O)[O-])c1O2` (stereo not given), the XC50 turned out to be 785 nM.

`CC(=O)Nc1nc(C(=O)Nc2cccc(-c3cccc(-c4nc5ccccc5[nH]4)c3)c2)cs1` returned an XC50 of 172 nM.

`CCC1CN2CCc3cc(OC)c(OC)cc3C2CC1CC1NCCc2c1[nH]c1ccc(O)cc21` (stereo not given) gave an XC50 of 103 nM.

`CC(=O)Oc1cc(C)ccc1C1CCN(CCCCNC(=O)c2ccc(NC(=O)c3ccc(Cl)cc3)cc2)CC1` yielded an XC50 of 721 nM.

Regarding `COc1ccc(NC(=O)[C@H](Cc2ccccc2)Nc2cc(C)nc(NCCc3ccc(F)cc3)n2)cc1`, the XC50 is 1120 nM.

Regarding `O=C(NCCN1CCC(NC(=O)c2ccc(-c3ccccn3)s2)CC1)c1ccc(Cl)c(Cl)c1`, the XC50 turned out to be 881 nM.

`CN(C)CCCOc1ccccc1CN1CC[C@H](NC(=O)c2ccc(Cl)c(Cl)c2)C1` came in with an XC50 of 1110 nM.

In turn, `Cc1[nH]c2ccc(C#N)cc2c(=O)c1Br` registered an XC50 of 640 nM.

Regarding `O=c1ccc(CNc2nc(NCCc3ccccc3)nc3ccc(Cl)cc23)c[nH]1`, the XC50 worked out at 783 nM.

Consider `Cc1cc(O)nc(NC(=N)NOCCCc2ccccc2)n1`, for which the XC50 is 760 nM.

In turn, `O=C(/C=C/c1ccc(Cl)c(Cl)c1)NCCCCCN1CCCC(C(=O)Nc2ccc(Cl)cc2)C1` (stereo not given) came in with an XC50 of 851 nM.

`CC(C)(C)C(C)(C)Cc1ccc(O)c(CN2CCN(c3ccccc3)CC2)c1` displayed an XC50 of 601 nM.

With `CCNc1cc(C(=O)N[C@@H](Cc2ccccc2)[C@H](O)CNC(C)Cc2cccc(Cl)c2)cc(N2CCCCS2(=O)=O)c1` (stereo not given in full), the XC50 is 496 nM.

`O=S(=O)(c1ccc(OCc2ccc(Cl)cc2)cc1)c1cc2c(cc1OCc1ccccc1)CCN(C1CCC1)CC2` displayed an XC50 of 1020 nM.

Regarding `Cc1ccc(N2CCN(CCCCNC(=O)c3ccc(NC(=O)c4ccc(Cl)cc4)cc3)CC2)c(C)c1`, the XC50 was 764 nM.

For `Cc1ccccc1C1CCN(C2CCC(NC(=O)/C=C/c3cccc(Cl)c3F)CC2)CC1` (stereo not given), the XC50 stood at 1140 nM.

Take `NC(=O)c1ccc(-n2cnc3cc(F)ccc32)cc1OCc1ccccc1C(F)(F)F.NC(=O)c1ccc(-n2cnc3ccc(F)cc32)cc1OCc1ccccc1C(F)(F)F`: the XC50 is 363 nM.

Compound `COc1cccc(NC(=O)N2CCOC(CCN3CCC4(CCc5ccccc54)CC3)(c3ccc(Cl)c(Cl)c3)C2)c1` (stereo not given) came in with an XC50 of 1010 nM.

`O=C(NC1CCN(CCC[C@]2(c3ccc(Cl)c(Cl)c3)CCCN(C(=O)c3ccccc3)C2)CC1)c1ccc(Cl)cc1` yielded an XC50 of 899 nM.

`COc1ccc(-n2c(=O)c3c(n4c(SC(C)C)nnc24)-c2ccccc2CC32CCCCC2)cc1` registered an XC50 of 502 nM.

Take `c1ccc(-c2[nH]c3ccccc3c2CN2CCC(N3CCCCC3)CC2)nc1`: the XC50 came to 1210 nM.

`COC(=O)C1=C(C)NC2=C(C(=O)CC(c3ccc(OC)c(OC)c3)C2)C1c1cccc(O)c1` (stereo not given) gave an XC50 of 729 nM.

The compound `Cc1noc(-c2ccc(O)cc2O)c1-c1ccc2c(c1)OCCCO2` returned an XC50 of 892 nM.

In turn, `c1cc(COc2ccc(C3=NCCN3)cc2)nc(COc2ccc(C3=NCCN3)cc2)c1` returned an XC50 of 147 nM.

`N=C(N)Nc1ccc(C(=O)O)c(O)c1`: the XC50 was 1030 nM.

`Cc1ccc(CNC(=O)[C@H](Cc2ccccc2)Nc2cc(C)nc(NCC3CCCCC3)n2)cc1`: the XC50 came to 899 nM.

The values are drawn from ChEMBL document CHEMBL1157539, “Thousands of chemical starting points for antimalarial lead identification” (Nature, 2010).
